According to patent US12590123B2, “Compounds and methods for treating cancer, viral infections, and allergic conditions” (Washington University, priority 2019, dated 2026):
Where two headings read alike, the source gives them in different places.

Experiments:
Type in all cases: biochemical
[1] = biological target: T1, matriptase (Homo sapiens, UniProt Q9Y5Y6); assay: Fluorescent kinetic enzyme assay of matriptase activity (Boc-QAR-AMC)
T1 construct: purchased R&D Systems 3946-SE-010
T1 sequence (Q9Y5Y6 615-855 limits assumed): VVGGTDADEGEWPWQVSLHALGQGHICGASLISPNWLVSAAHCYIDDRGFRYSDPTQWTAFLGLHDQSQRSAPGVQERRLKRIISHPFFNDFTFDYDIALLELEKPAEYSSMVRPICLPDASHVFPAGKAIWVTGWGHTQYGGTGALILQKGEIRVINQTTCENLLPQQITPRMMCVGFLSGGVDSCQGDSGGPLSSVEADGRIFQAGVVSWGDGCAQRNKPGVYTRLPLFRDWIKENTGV

[2] = biological target: T2, activated hepsin (Homo sapiens, UniProt P05981); assay: Fluorescent kinetic enzyme assay of hepsin activity (Boc-QAR-AMC)
T2 construct: purchased R&D Systems 4776-SE-010

[3] = biological target: recombinant thrombin (Homo sapiens, UniProt P00734); assay: Chromogenic kinetic enzyme assay of thrombin (S2238)
Experimental: (§1) Using GraphPad Prism (GraphPad Software, San Diego, CA), a four-parameter curve fit was used to determine the inhibitor IC50s from a plot of the mean reaction velocity versus the inhibitor concentration. The IC50 values represent the average of three or more separate experimental determinations. Apparent Ki values were calculated from the IC50 values using the Cheng and Prusoff equation (Ki=IC50/(1+[S]/Km).
(§2) Using GraphPad Prism version 6.04 software program, (GraphPad Software, San Diego, CA, graphpad.com), a four parameter curve fit was used to determine the inhibitor IC50s from a plot of the mean reaction velocity versus the inhibitor concentration.
(§3) Fluorescent inhibitor and chromogenic proteolytic assays were performed for compounds prepared in Example 11 in general accordance with the procedures described in Example 9.

[4] = biological target: Factor Xa (Homo sapiens, UniProt P00742); assay: Chromogenic kinetic enzyme assay of Factor Xa (S2222)
Experimental: as §1, §2, §3

[5] = biological target: T3, recombinant HGFA serine protease domain (Homo sapiens, UniProt Q04756); assay: Fluorescent kinetic enzyme assay of HGFA activity (Boc-QLR-AMC)
T3 construct: His6 tag (N); seven amino acid spacer plus TEV cleavage site (N); made in house; host or cells: High 5 insect cells (baculovirus; Sf9 for virus production)
T3 sequence (Q04756 373-655): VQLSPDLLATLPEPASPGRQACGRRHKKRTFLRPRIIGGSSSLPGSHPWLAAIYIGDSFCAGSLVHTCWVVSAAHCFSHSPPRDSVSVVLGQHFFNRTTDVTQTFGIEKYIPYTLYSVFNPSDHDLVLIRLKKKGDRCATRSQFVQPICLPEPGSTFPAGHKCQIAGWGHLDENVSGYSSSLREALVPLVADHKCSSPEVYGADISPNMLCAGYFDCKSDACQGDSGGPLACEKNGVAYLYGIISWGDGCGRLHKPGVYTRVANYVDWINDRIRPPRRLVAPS
Description: The compounds prepared in Examples 1 to 8 were subjected to a series of inhibitions studies. The compounds were first tested in an HGFA enzymatic assay using the fluorogenic substrate Boc-QLR-AMC with a recombinant form of the HGFA serine protease domain.
This PCR product was cloned into the SfoI-HindIII sites of a modified pFastBac HT baculovirus expression vector (Addgene, Cambridge, MA). This vector contains a six amino His tag followed by a seven amino spacer and a seven amino acid TEV cleavage site placed immediately downstream of the honey bee melittin signal peptide. Using a modified Bac to Bac Expression System (Life Technologies, Carlsbad, CA), recombinant HGFA bacmids were obtained by transforming DH10Bac Escherichia coli cells. To obtain HGFA containing baculovirus, purified bacmids were transfected into Sf9 insect cells. After 5 days in culture at 27° C., media was harvested from transfected Sf9 cells. This media was used to prepare baculovirus infected insect cells (BIICs). These BIIICs were used to infect High 5 insect cells. Four days post infection, media was harvested, and recombinant protein was prepared as follows. Media was chilled to 4° C. and spun at 4000×g for 20 minutes (all subsequent steps were performed at 4° C. unless noted). Clarified media was passed first through a Whatman GF/B 1 um (#1821-047, GE Healthcare Life Sciences, Piscataway, NJ) and then a 0.22 μm PES membrane (#99955, TPP Techno Plastic Products AG, Trasadingen, Switzerland) and then concentrated using a Pall Centramate tangential flow system and Centramate T-series Cassette (#OS010T12, Pall Corporation, Port Washington, NY). Concentrated media was then buffer exchanged in two steps, five volumes of 50 mM Na-phosphate, 500 mM NaCl, pH 6.2, followed by five volumes of 50 mM Na-phosphate, 500 mM NaCl, pH 7.5. […] After mixing this slurry for 12 hours, nickel agarose beads were allowed to settle by gravity and then loaded into a column. Beads were washed with buffer (25 mM Na-phosphate, 500 mM NaCl, 25 mM imidazole, pH 8) and the bound protein eluted using (25 mM Na-phosphate, 500 mM NaCl, 250 mM imidazole, pH 8). Using a Amicon Ultra-4 Centrifugal filters (#UFC801008, Merck Millipore, Ltd., Tullagreen, Ireland), peak protein fractions were concentrated and run over a Superdex-200 10/300 GL column (GE Healthcare Life Sciences, Piscataway, NJ) in 10 mM Tris, 200 mM NaCl, 0.2 mM EDTA, pH 8. HGFA containing fractions were pooled, concentrated, made 50% glycerol, and stored at minus 20° C. Protein was quantitated using a modified Lowry protein assay (#500-0006, Bio-Rad Laboratories, Hercules, CA) and specific activity determined using Boc-QLR-AMC substrate.
Fluorescent kinetic enzyme assays of HGFA, matriptase, and hepsin activity: Compounds (0-20 μM final concentration in reaction) were diluted in DMSO (2% DMSO final concentration in reaction) and then mixed with either recombinant HGFA serine protease domain, matriptase (#3946-SE-010, R&D Systems, Minneapolis, Minnesota), or activated hepsin* (#4776-SE-010, R&D Systems, Minneapolis, Minnesota) in black 384 well plates (Corning #3575. Coming, NY). The final assay concentration for HGFA, matriptase, and hepsin, were 6.25 nM, 0.2 nM, and 0.3 nM, respectively in TNC buffer (25 mM Tris, 150 mM NaCl, 5 mM CaCl2, 0.01% Triton X-100, pH 8). After thirty minutes of incubation at room temperature, Boc-QLR-AMC substrate was added (HGFA assay) or Boc-QAR-AMC substrate (matriptase, and hepsin assays). Fluorescence (excitation at 380 nm and emission at 460 nm) was kinetically measured at room temperature over a 1 hour time period using a Biotek Synergy 2 plate reader (Winnoski, VT). From a plot of the mean reaction velocity versus the inhibitor concentration, a non-linear four parameter curve fit was performed using GraphPad Prism (GraphPad Software, San Diego, CA) to determine inhibitor IC50s. The IC50 values were determined from the average of three or more separate experimental determinations. […]

[6] = Table 2, read-out: Matriptase (IC50 nM)
[7] = Table 2, read-out: Hepsin (IC50 nM)
[8] = Table 2, chromogenic assay, read-out: Thrombin* (IC50 nM)
[9] = Table 2, chromogenic assay, read-out: Factor Xa* (IC50 nM)
[10] = Table 2, read-out: HGFA (IC50 nM)
[11] = Example 12, read-out: IC50 for matriptase
[12] = Example 12, read-out: IC50 for hepsin
[13] = Table 3, average of three experiments, read-out: Thrombin IC50

Sequence of Factor Xa (P00742 235-488 limits assumed): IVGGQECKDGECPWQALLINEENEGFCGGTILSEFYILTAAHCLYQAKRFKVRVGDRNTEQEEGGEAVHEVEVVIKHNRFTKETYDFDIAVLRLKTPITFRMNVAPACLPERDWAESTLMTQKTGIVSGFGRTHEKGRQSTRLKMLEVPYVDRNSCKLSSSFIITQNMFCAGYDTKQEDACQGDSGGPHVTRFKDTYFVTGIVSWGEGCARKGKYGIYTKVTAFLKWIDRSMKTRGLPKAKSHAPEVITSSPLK
Sequence of Factor Xa (P00742 41-179 partner limits assumed): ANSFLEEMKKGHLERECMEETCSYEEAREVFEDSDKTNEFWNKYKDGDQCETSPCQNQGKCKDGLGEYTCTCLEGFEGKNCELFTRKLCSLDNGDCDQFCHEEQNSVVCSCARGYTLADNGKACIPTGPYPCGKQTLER
T2 sequence (P05981 163-417 limits assumed): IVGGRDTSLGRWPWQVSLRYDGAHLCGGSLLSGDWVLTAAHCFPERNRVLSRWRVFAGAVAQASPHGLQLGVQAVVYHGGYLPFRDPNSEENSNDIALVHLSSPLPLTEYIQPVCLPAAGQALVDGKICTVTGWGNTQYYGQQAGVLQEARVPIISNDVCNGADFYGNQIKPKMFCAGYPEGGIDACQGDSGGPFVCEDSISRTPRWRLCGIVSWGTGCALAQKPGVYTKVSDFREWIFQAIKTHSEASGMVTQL
T2 sequence (P05981 1-162 partner limits assumed): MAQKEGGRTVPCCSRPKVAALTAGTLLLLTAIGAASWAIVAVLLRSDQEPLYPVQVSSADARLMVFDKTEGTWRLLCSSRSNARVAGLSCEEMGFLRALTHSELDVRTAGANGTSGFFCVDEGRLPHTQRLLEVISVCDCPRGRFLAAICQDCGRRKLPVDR

Row | SMILES | IC50 [1, 6] [nM] | IC50 [2, 7] [nM] | IC50 [3, 8] [nM] | IC50 [4, 9] [nM] | IC50 [5, 10] [nM] | IC50 ([4]; Table 3, average of three experiments, read-out: Factor Xa IC50) [nM] | IC50 ([5]; Table 3, average of three experiments, read-out: HGFA IC50) [nM] | IC50 [1, 11] [nM] | IC50 [2, 12] [nM] | IC50 [3, 13] [nM]
1 | CC(C)C[C@H](NC(=O)OC1(Cc2ccccc2)CCNCC1)C(=O)N[C@@H](CCCNC(=N)N)C(=O)c1nc2ccccc2s1 [Compound 8b, 4-benzylpiperidin-4-yl((S)-1-(((S)-1-(benzo[d]thiazol-2-yl)-5-guanidino-1-oxopentan-2-yl)amino)-4-methyl-1-oxopentan-2-yl)carbamate] | – | – | – | – | – | – | 1200 | 30 | 0.6 | > 20000
2 | CC(=O)N[C@H]1Cc2ccc(cc2)OCCCC[C@@H](C(=O)N[C@@H](CCCNC(=N)N)C(=O)c2nc3ccccc3s2)NC(=O)[C@@H](Cc2c[nH]c3ccccc23)NC1=O [VD4162A] | 30.8 | – | > 20000 | 7470 | 52 | – | – | – | – | –
3 | CC(=O)N1CCC(CCc2ccccc2)(OC(=O)N[C@@H](CC(C)C)C(=O)N[C@@H](CCCNC(=N)N)C(=O)c2nc3ccccc3s2)CC1 [Compound 8c, 1-acetyl-4-phenethylpiperidin-4-yl ((S)-1-(((S)-1-(benzo[d]thiazol-2-yl)-5-guanidino-1-oxopentan-2-yl)amino)-4-methyl-1-oxopentan-2-yl)carbamate] | – | – | – | – | – | 2000 | – | 70 | 0.5 | 7700
4 | CC(=O)N[C@H]1CC(=O)N(C)CCCC[C@@H](C(=O)N[C@@H](CCCNC(=N)N)C(=O)c2nc3ccccc3s2)NC(=O)[C@H](CC(C)C)NC1=O [VD4192B] | 1.1 | 14.9 | 17100 | 678 | 12300 | – | – | – | – | –
5 | CC(=O)N[C@H]1Cc2ccc(cc2)OCCCC[C@@H](C(=O)N[C@@H](CCCNC(=N)N)C(=O)c2nc3ccccc3s2)NC(=O)[C@@H](Cc2c[nH]c3ccccc23)NC1=O [VD4162B] | – | – | 14600 | 1110 | – | – | – | – | – | –

The next lines start with results.

Row | IC50 [1, 6] [nM] | IC50 [2, 7] [nM] | IC50 [3, 8] [nM] | IC50 [4, 9] [nM] | IC50 [5, 10] [nM] | IC50 ([4]; Table 3, average of three experiments, read-out: Factor Xa IC50) [nM] | SMILES | IC50 ([5]; Table 3, average of three experiments, read-out: HGFA IC50) [nM] | IC50 [1, 11] [nM] | IC50 [2, 12] [nM] | IC50 [3, 13] [nM]
6 | 41.3 | 136 | 7940 | 1360 | – | – | CC(=O)N[C@H]1CC(=O)NCCCC[C@@H](C(=O)N[C@@H](CCCNC(=N)N)C(=O)c2nccs2)NC(=O)[C@H](CC(C)C)NC1=O [VD3076, (3S,6S,14S)-6-acetamido-N—((S)-5-guanidino-1-oxo-1-(thiazol-2-yl)pentan-2-yl)-3-isobutyl-2,5,8-trioxo-1,4,9-triazacyclotetradecane-14-carboxamide] | – | – | – | –
7 | 2.5 | 8.8 | > 20000 | – | 13700 | – | CC(=O)N[C@H]1CC(=O)NCCCC[C@@H](C(=O)N[C@@H](CCCNC(=N)N)C(=O)c2nc3ccccc3s2)NC(=O)[C@H](C)NC1=O [VD3141, (3S,6S,14S)-6-acetamido-N—((S)-1-(benzo[d]thiazol-2-yl)-5-guanidino-1-oxopentan-2-yl)-3-methyl-2,5,8-trioxo-1,4,9-triazacyclotetradecane-14-carboxamide] | – | – | – | –
8 | 3.8 | 10.1 | > 20000 | 4650 | 15800 | – | CC(=O)N[C@H]1CC(=O)NCCCC[C@@H](C(=O)N[C@@H](CCCNC(=N)N)C(=O)c2nc3ccccc3s2)NC(=O)[C@H](CC(N)=O)NC1=O [VD3166, (3S,6S,14S)-6-acetamido-3-(2-amino-2-oxoethyl)-N—((S)-1-(benzo[d]thiazol-2-yl)-5-guanidino-1-oxopentan-2-yl)-2,5,8-trioxo-1,4,9-triazacyclotetradecane-14-carboxamide] | – | – | – | –
9 | 6.1 | 44 | > 20000 | 17000 | – | – | CC(=O)N[C@H]1CC(=O)NCCCC[C@@H](C(=O)N[C@@H](CCCNC(=N)N)C(=O)c2nc3ccccc3s2)NC(=O)[C@H](Cc2ccc(O)cc2)NC1=O [VD3158, (3S,6S,14S)-6-acetamido-N—((S)-1-(benzo[d]thiazol-2-yl)-5-guanidino-1-oxopentan-2-yl)-3-(4-hydroxybenzyl)-2,5,8-trioxo-1,4,9-triazacyclotetradecane-14-carboxamide] | – | – | – | –
10 | 6.3 | 5.9 | > 20000 | 6180 | 4310 | – | CC(=O)N[C@H]1CC(=O)NCCCC[C@@H](C(=O)N[C@@H](CCCNC(=N)N)C(=O)c2nc3ccccc3s2)NC(=O)CNC1=O [VD3174, (6S,14S)-6-acetamido-N—((S)-1-(benzo[d]thiazol-2-yl)-5-guanidino-1-oxopentan-2-yl)-2,5,8-trioxo-1,4,9-triazacyclotetradecane-14-carboxamide] | – | – | – | –
11 | 4.4 | 1.7 | – | 723 | 4470 | – | CC(=O)N[C@H]1CCCCNC(=O)CC[C@@H](C(=O)N[C@@H](CCCNC(=N)N)C(=O)c2nc3ccccc3s2)NC(=O)[C@H](CC(C)C)NC1=O [VD2064, (2S,5S,14S)-14-acetamido-N—((S)-1-(benzo[d]thiazol-2-yl)-5-guanidino-1-oxopentan-2-yl)-2-isobutyl-3,8,15-trioxo-1,4,9-triazacyclopentadecane-5-carboxamide] | – | – | – | –
12 | – | – | > 20000 | – | – | – | CC(=O)N[C@@H](CCC(N)=O)C(=O)N[C@@H](Cc1ccccc1)C(=O)NC(CCCNC(=N)N)C(=O)c1nc2ccccc2s1 (some centres unmarked) [MM3144, Ac-QFR-kbt] | – | – | – | –
13 | – | – | > 20000 | – | – | – | CSCCC[C@H](NC(C)=O)C(=O)N[C@@H](CCC(N)=O)C(=O)N[C@@H](Cc1ccccc1)C(=O)N[C@@H](CCCNC(=N)N)C(=O)c1nc2ccccc2s1 [MM3130, Ac-MQFR-kbt] | – | – | – | –
